How the values were obtained:
[1] = target: full-length MALT1 protein (Strep-MALT1(1-824)-His) (Homo sapiens (Human), UniProt Q9UDY8); assay: MALT1 Biochemical Protease Assay (Ac-LRSR-AMC substrate); conditions: 10 nM FL MALT1, 200 μM Ac-LRSR-AMC, 4 h at RT; read-out: MALT1_Biochemical activity (Ac-LRSR-amc) IC50
Method in brief: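 Full-length MALT1 pre-incubated with compounds (30 μM to 0.5 nM, 11 threefold steps) for 50 min at RT. After Ac-LRSR-AMC was added, the reaction ran 4 h at RT and AMC fluorescence was read. IC50 and Hill slope from curve fitting against no-enzyme and no-compound controls.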

[2] = test system: IL6 secretion by OCI-LY3 ABC-DLBCL cells; assay: Human IL6 Mesoscale assay (OCI-LY3); format: cell-based; conditions: Homo sapiens, 24 h
Method in brief: (§1)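 TMD8 or OCI-LY3 cells (100,000/well) were exposed to compounds in 9 twofold dilutions from 15 μM to 58.6 nM (0.3% DMSO) for 24 h at 37 °C. Supernatant IL6 and IL10 were quantified by MSD electrochemiluminescence immunoassay. DMSO defined maximum signal and BTK inhibitor RN486 (30 nM–131 pM) defined maximum inhibition.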

[3] = test system: IL10 secretion by OCI-LY3 ABC-DLBCL cells; assay: Human IL10 Mesoscale assay (OCI-LY3); format: cell-based; conditions: Homo sapiens, 24 h
Method in brief: as §1

Sequence of full-length MALT1 protein (Strep-MALT1(1-824)-His) (Q9UDY8 whole entry): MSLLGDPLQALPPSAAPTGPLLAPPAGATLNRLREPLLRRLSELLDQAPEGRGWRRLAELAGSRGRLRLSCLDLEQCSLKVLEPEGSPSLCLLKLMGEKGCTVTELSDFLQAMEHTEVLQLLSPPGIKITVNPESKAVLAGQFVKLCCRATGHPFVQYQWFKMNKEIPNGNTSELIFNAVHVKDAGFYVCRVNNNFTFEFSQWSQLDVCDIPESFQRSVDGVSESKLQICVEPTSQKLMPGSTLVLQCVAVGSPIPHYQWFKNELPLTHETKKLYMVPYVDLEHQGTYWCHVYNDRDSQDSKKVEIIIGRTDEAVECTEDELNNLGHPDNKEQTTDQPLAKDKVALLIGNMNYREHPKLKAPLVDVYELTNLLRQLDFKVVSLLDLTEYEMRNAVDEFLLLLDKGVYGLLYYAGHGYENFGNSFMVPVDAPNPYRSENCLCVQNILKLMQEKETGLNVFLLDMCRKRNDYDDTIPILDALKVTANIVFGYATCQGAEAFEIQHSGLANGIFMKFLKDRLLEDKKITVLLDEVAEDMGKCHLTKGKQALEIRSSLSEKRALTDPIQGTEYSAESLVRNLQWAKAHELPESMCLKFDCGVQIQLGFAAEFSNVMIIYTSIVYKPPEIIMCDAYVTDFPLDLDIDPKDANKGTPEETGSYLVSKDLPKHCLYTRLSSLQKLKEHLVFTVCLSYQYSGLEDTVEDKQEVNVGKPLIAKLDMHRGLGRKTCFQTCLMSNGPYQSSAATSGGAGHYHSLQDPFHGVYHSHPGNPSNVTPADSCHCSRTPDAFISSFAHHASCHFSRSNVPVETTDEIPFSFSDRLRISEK

| SMILES | IC50 [1] [nM] | IC50 [2] [nM] | IC50 [3] [nM] |
| --- | --- | --- | --- |
| O=C(Nc1cnc(-n2ccnn2)c(C(F)(F)F)c1)c1cnn(-c2cccc3ncccc23)c1C(F)(F)F [Cpd 283, N-(6-(1H-1,2,3-triazol-1-yl)-5-(trifluoromethyl)pyridin-3-yl)-1-(quinolin-5-yl)-5-(trifluoromethyl)-1H-pyrazole-4-carboxamide] | 123 | 851 | 550 |
| CN(C)Cc1cnnn1-c1ncc(NC(=O)c2cnn(-c3cccc4ncccc34)c2C(F)(F)F)cc1Cl [Cpd 270, N-(5-chloro-6-(5-((dimethylamino)methyl)-1H-1,2,3-triazol-1-yl)pyridin-3-yl)-1-(quinolin-5-yl)-5-(trifluoromethyl)-1H-pyrazole-4-carboxamide] | 145 | 170 | 98 |
| O=C(Nc1cnc(-n2nccn2)c(Cl)c1)c1cnn(-c2cnc(C3CCCO3)c3ccccc23)c1C(F)(F)F (stereo not drawn) [Cpd 365, N-(5-chloro-6-(2H-1,2,3-triazol-2-yl)pyridin-3-yl)-1-(1-(tetrahydrofuran-2-yl)isoquinolin-4-yl)-5-(trifluoromethyl)-1H-pyrazole-4-carboxamide] | 60 | 25 | 24 |
| COc1cc(NC(=O)c2cnn(-c3cccc4ncccc34)c2C(F)(F)F)cnc1-n1nccn1 [Cpd 251, N-(5-methoxy-6-(2H-1,2,3-triazol-2-yl)pyridin-3-yl)-1-(quinolin-5-yl)-5-(trifluoromethyl)-1H-pyrazole-4-carboxamide] | 302 | 2190 | 2240 |
| O=C(Nc1cnc(-n2nccn2)c(Cl)c1)c1cnn(-c2cnc(C3CCCN3)c3ccccc23)c1C(F)(F)F (stereo not drawn) [Cpd 380, N-(5-chloro-6-(2H-1,2,3-triazol-2-yl)pyridin-3-yl)-1-(1-(pyrrolidin-2-yl)isoquinolin-4-yl)-5-(trifluoromethyl)-1H-pyrazole-4-carboxamide] | 447 | 46 | 24 |
| COCCOc1ncc(C(F)(F)F)cc1NC(=O)c1cnn(-c2cccc3c(=O)[nH]ccc23)c1C(F)(F)F [Cpd 357, N-(2-(2-methoxyethoxy)-5-(trifluoromethyl)pyridin-3-yl)-1-(1-oxo-1,2-dihydroisoquinolin-5-yl)-5-(trifluoromethyl)-1H-pyrazole-4-carboxamide] | 977 | 15 | 15 |
| O=C(Nc1cnc(-n2nccn2)c(Cl)c1)c1cnn(-c2cccc3nc([C@@H]4CCCO4)ccc23)c1C(F)(F)F (single isomer, unassigned) [Cpd 441, (*S)—N-(5-chloro-6-(2H-1,2,3-triazol-2-yl)pyridin-3-yl)-1-(2-(tetrahydrofuran-2-yl)quinolin-5-yl)-5-(trifluoromethyl)-1H-pyrazole-4-carboxamide] | 977 | 1120 | 891 |
| O=C(Nc1cnc(-n2nccn2)c(Cl)c1)c1cnn(-c2cnc(C3CCCO3)c3cccc(C4CCCO4)c23)c1C(F)(F)F (stereo not drawn) [Cpd 366, 1-(1,5-bis(tetrahydrofuran-2-yl)isoquinolin-4-yl)-N-(5-chloro-6-(2H-1,2,3-triazol-2-yl)pyridin-3-yl)-5-(trifluoromethyl)-1H-pyrazole-4-carboxamide] | 8910 | 107 | 89 |
| Cn1nc(-n2ncc(C(=O)Nc3cnc(-n4nccn4)c(C#N)c3)c2C(F)(F)F)c2ccccc21 [Cpd 266, N-(5-cyano-6-(2H-1,2,3-triazol-2-yl)pyridin-3-yl)-1-(1-methyl-1H-indazol-3-yl)-5-(trifluoromethyl)-1H-pyrazole-4-carboxamide] | 158 | 186 | 178 |
| N#Cc1cc(NC(=O)c2cnn(-c3cnc(F)c4ccccc34)c2C(F)(F)F)cnc1-n1nccn1 [Cpd 289, N-(5-cyano-6-(2H-1,2,3-triazol-2-yl)pyridin-3-yl)-1-(1-fluoroisoquinolin-4-yl)-5-(trifluoromethyl)-1H-pyrazole-4-carboxamide] | 91 | 132 | 123 |
| CNc1ncc(-n2ncc(C(=O)Nc3cnc(-n4nccn4)c(Cl)c3)c2C(F)(F)F)c2cccc(F)c12 [Cpd 324, N-(5-chloro-6-(2H-1,2,3-triazol-2-yl)pyridin-3-yl)-1-(8-fluoro-1-(methylamino)isoquinolin-4-yl)-5-(trifluoromethyl)-1H-pyrazole-4-carboxamide] | 117 | 40 | 16 |
| Cc1cc(-n2nccn2)c(Cl)cc1NC(=O)c1cnn(-c2cncc3c(F)cccc23)c1C(F)(F)F [Cpd 317, N-(5-chloro-2-methyl-4-(2H-1,2,3-triazol-2-yl)phenyl)-1-(8-fluoroisoquinolin-4-yl)-5-(trifluoromethyl)-1H-pyrazole-4-carboxamide] | 65 | 72 | 66 |
| Cc1ccc(-n2ncc(C(=O)Nc3ccnc(C(F)(F)F)c3)c2C(F)(F)F)c2ccnn12 [Cpd 207, 1-(7-methylpyrazolo[1,5-a]pyridin-4-yl)-5-(trifluoromethyl)-N-(2-(trifluoromethyl)pyridin-4-yl)-1H-pyrazole-4-carboxamide] | 331 | 525 | 513 |
| Cn1ncc2ccnc(-n3ncc(C(=O)Nc4cnc(-n5nccn5)c(C#N)c4)c3C(F)(F)F)c21 [Cpd 259, N-(5-cyano-6-(2H-1,2,3-triazol-2-yl)pyridin-3-yl)-1-(1-methyl-1H-pyrazolo[3,4-c]pyridin-7-yl)-5-(trifluoromethyl)-1H-pyrazole-4-carboxamide] | 219 | 145 | 151 |
| Nc1nc2cccc(-n3ncc(C(=O)Nc4cnc(-n5nccn5)c(Cl)c4)c3C(F)(F)F)c2s1 [Cpd 278, 1-(2-aminobenzo[d]thiazol-7-yl)-N-(5-chloro-6-(2H-1,2,3-triazol-2-yl)pyridin-3-yl)-5-(trifluoromethyl)-1H-pyrazole-4-carboxamide] | 129 | 141 | 219 |
| O=C(Nc1cnc(-n2nccn2)c(Cl)c1)c1cnn(-c2cnc([C@H]3CCCO3)c3ccccc23)c1C(F)(F)F (single isomer, unassigned) [Cpd 436, (*R)—N-(5-chloro-6-(2H-1,2,3-triazol-2-yl)pyridin-3-yl)-1-(1-(tetrahydrofuran-2-yl)isoquinolin-4-yl)-5-(trifluoromethyl)-1H-pyrazole-4-carboxamide] | 1320 | 141 | 110 |
| Nc1ncc(-n2ncc(C(=O)Nc3cc(Cl)c(-n4nccn4)cc3F)c2C(F)(F)F)c2ccccc12 [Cpd 327, 1-(1-aminoisoquinolin-4-yl)-N-(5-chloro-2-fluoro-4-(2H-1,2,3-triazol-2-yl)phenyl)-5-(trifluoromethyl)-1H-pyrazole-4-carboxamide] | 79 | 129 | 100 |
| Cc1nc(-n2nccn2)c(Cl)cc1NC(=O)c1cnn(-c2cccc3scnc23)c1C(F)(F)F [Cpd 252, 1-(benzo[d]thiazol-4-yl)-N-(5-chloro-2-methyl-6-(2H-1,2,3-triazol-2-yl)pyridin-3-yl)-5-(trifluoromethyl)-1H-pyrazole-4-carboxamide] | 282 | 158 | 123 |
| Nc1ncc(-n2ncc(C(=O)Nc3ccnc(C(F)(F)F)c3)c2C(F)(F)F)c2ccccc12 [Cpd 339, 1-(1-aminoisoquinolin-4-yl)-5-(trifluoromethyl)-N-(2-(trifluoromethyl)pyridin-4-yl)-1H-pyrazole-4-carboxamide] | 117 | 107 | 87 |
| O=C(Nc1cnc(-n2nncc2CO)c(Cl)c1)c1cnn(-c2cccc3c(=O)[nH]ccc23)c1C(F)(F)F [Cpd 168, N-(5-chloro-6-(5-(hydroxymethyl)-1H-1,2,3-triazol-1-yl)pyridin-3-yl)-1-(1-oxo-1,2-dihydroisoquinolin-5-yl)-5-(trifluoromethyl)-1H-pyrazole-4-carboxamide] | 107 | 123 | 44 |
| O=C(Nc1cnc(-n2nccn2)c(Cl)c1)c1cnn(-c2cnc(N3CC[C@H](O)C3)c3sccc23)c1C(F)(F)F [Cpd 431, (S)—N-(5-chloro-6-(2H-1,2,3-triazol-2-yl)pyridin-3-yl)-1-(7-(3-hydroxypyrrolidin-1-yl)thieno[2,3-c]pyridin-4-yl)-5-(trifluoromethyl)-1H-pyrazole-4-carboxamide] | 17 | 117 | 95 |
| CCc1nc(-n2nccn2)c(Cl)cc1NC(=O)c1cnn(-c2cccc3nccn23)c1C(F)(F)F [Cpd 195, N-(5-chloro-2-ethyl-6-(2H-1,2,3-triazol-2-yl)pyridin-3-yl)-1-(imidazo[1,2-a]pyridin-5-yl)-5-(trifluoromethyl)-1H-pyrazole-4-carboxamide] | 324 | 107 | 71 |
| O=C(Nc1cnc(-c2nn[nH]n2)c(Cl)c1)c1cnn(-c2cccc3ncccc23)c1C(F)(F)F [Cpd 307, N-(5-chloro-6-(2H-tetrazol-5-yl)pyridin-3-yl)-1-(quinolin-5-yl)-5-(trifluoromethyl)-1H-pyrazole-4-carboxamide] | 58 | 447 | 427 |
| N#Cc1cc(NC(=O)c2cnn(-c3ncnc4scnc34)c2C(F)(F)F)cnc1-n1nccn1 [Cpd 294, N-(5-cyano-6-(2H-1,2,3-triazol-2-yl)pyridin-3-yl)-1-(thiazolo[5,4-d]pyrimidin-7-yl)-5-(trifluoromethyl)-1H-pyrazole-4-carboxamide] | 76 | 1580 | 871 |

Reference: patent US10954214B2 (Janssen Pharmaceutica NV, priority 2016, dated 2021)
